From patent publication US6737383B1, “Herbicidal oxadiazolidines” (priority 1999, dated 2004)

Legend:
pigweed = experiment: Test B pre/postemergence pigweed; assay type: in vivo, Amaranthus retroflexus
How it was run: (§1)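 Herbicidal effect was estimated by eye on a ten-point control scale after plants spent twelve to sixteen days in a greenhouse following soil or foliar treatment. Foliar sprays targeted plants at one to four leaves; all doses were formulated in a non-phytotoxic solvent with surfactant.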

bedstraw = experiment: Test B pre/postemergence bedstraw; assay type: in vivo, Galium aparine; conditions: Postemergence
How it was run: as §1

surinam grass = experiment: Test B pre/postemergence surinam grass; assay type: in vivo, Brachiaria decumbens
How it was run: as §1

giant foxtail = experiment: Test B pre/postemergence giant foxtail; assay type: in vivo, Setaria faberii
How it was run: as §1

morningglory = experiment: Test B pre/postemergence morningglory; assay type: in vivo, Ipomoea hederacea
How it was run: as §1

cocklebur = experiment: Test B pre/postemergence cocklebur; assay type: in vivo, Xanthium strumarium
How it was run: as §1

sugar beet = experiment: Test B pre/postemergence sugar beet; assay type: in vivo, Beta vulgaris
How it was run: as §1

duck salad = experiment: Test B flood test duck salad; assay type: in vivo, Heteranthera limosa
How it was run: (§2)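 Each value is a visual injury score relative to controls, with 10 meaning complete control and 0 no effect. Evaluation took place twelve to sixteen days after the 2-leaf-stage plants were treated and kept in the greenhouse.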

velvetleaf = experiment: Test B pre/postemergence velvetleaf; assay type: in vivo, Abutilon theophrasti
How it was run: as §1

bamyardgrass = experiment: Test B flood test barnyardgrass; assay type: in vivo, Echinochloa crus-galli
How it was run: as §2

purple nutsedge = experiment: Test B pre/postemergence purple nutsedge; assay type: in vivo, Cyperus rotundus
How it was run: as §1

corn = experiment: Test B pre/postemergence corn; assay type: in vivo, Zea mays
How it was run: as §1

rice = experiment: Test B flood test rice; assay type: in vivo, Oryza sativa
How it was run: as §2

blackgrass = experiment: Test B pre/postemergence blackgrass; assay type: in vivo, Alopecurus myosuroides
How it was run: as §1

rape = experiment: Test B pre/postemergence rape; assay type: in vivo, Brassica napus
How it was run: as §1

[1] = Postemergence, Rate 62 g/ha, scale 0 to 10, 0 is no effect, 10 is complete control
[2] = Postemergence, Rate 125 g/ha, scale of 0 to 10 where 0 is no effect and 10 is complete control
[3] = Preemergence, Rate 62 g/ha, scale of 0 to 10 where 0 is no effect and 10 is complete control
[4] = Preemergence, Rate 125 g/ha, scale of 0 to 10 where 0 is no effect and 10 is complete control
[5] = Preemergence, Rate 250 g/ha, scale 0 to 10 (0 no effect, 10 complete control)
[6] = Preemergence, Rate 500 g/ha, scale of 0 to 10 where 0 is no effect and 10 is complete control
[7] = Rate 500 g/ha, Postemergence, scale 0 to 10, 0 is no effect, 10 is complete control
[8] = Postemergence, Rate 250 g/ha, scale of 0 to 10, 0 is no effect, 10 is complete control
[9] = Rate 62 g/ha, flood test species, Pre-emergence, visual evaluation after twelve to sixteen days
[10] = Rate 125 g/ha, under heading Pre-emergence, flood test species, visual evaluation after twelve to sixteen days
[11] = Rate 250 g/ha, Pre-emergence (flood test species), scale 0 to 10, 0 is no effect, 10 is complete control
[12] = Rate 500 g/ha, Pre-emergence section of Table B, 0 to 10 scale (0 no effect, 10 complete control)

`CC(C)N(C(=O)n1oc(=O)n(CC2CCCCO2)c1=O)c1ccccc1` (stereo not shown) [Compound 659] was tested, and the “Plant response rating, Redroot pigweed” value (pigweed; [1]) was 0, the “Redroot pigweed plant response rating” value (pigweed; [2]) was 0 and the “Redroot pigweed plant response rating” value (pigweed; [3]) was 6. The “Redroot pigweed plant response rating” value (pigweed; [4]) was 6, the “Plant response rating, Redroot pigweed” value (pigweed; [5]) was 9 and the “Plant response rating, Redroot pigweed” value (pigweed; [6]) was 10. For the same compound, the “Redroot pigweed plant response rating” value (pigweed; [7]) was 7, the “Plant response rating, Bedstraw” value (bedstraw; Rate 62 g/ha, scale 0 to 10, 0 is no effect, 10 is complete control) was 0 and the “Bedstraw plant response rating” value (bedstraw; Rate 125 g/ha, scale of 0 to 10 where 0 is no effect and 10 is complete control) was 0. The “Plant response rating, B. signalgrass” value (surinam grass; [1]) was 0, the “Plant response rating, B. signalgrass” value (surinam grass; [2]) was 5 and the “B. signalgrass plant response rating” value (surinam grass; [8]) was 5. The “B. signalgrass plant response rating” value (surinam grass; [3]) was 2, the “B. signalgrass plant response rating” value (surinam grass; [4]) was 4 and the “Plant response rating, B. signalgrass” value (surinam grass; [5]) was 4. For the same compound, the “Plant response rating, B. signalgrass” value (surinam grass; [6]) was 8, the “B. signalgrass plant response rating” value (surinam grass; [7]) was 8 and the “Plant response rating, Giant foxtail” value (giant foxtail; [1]) was 5. For the same compound, the “Giant foxtail plant response rating” value (giant foxtail; [2]) was 7, the “Giant foxtail plant response rating” value (giant foxtail; [8]) was 8 and the “Giant foxtail plant response rating” value (giant foxtail; [3]) was 9. For the same compound, the “Giant foxtail plant response rating” value (giant foxtail; [4]) was 9, the “Plant response rating, Giant foxtail” value (giant foxtail; [5]) was 9 and the “Plant response rating, Giant foxtail” value (giant foxtail; [6]) was 10. The “Giant foxtail plant response rating” value (giant foxtail; [7]) was 8, the “Plant response rating, Morningglory” value (morningglory; [1]) was 4 and the “Morningglory plant response rating” value (morningglory; [2]) was 10. The “Morningglory plant response rating” value (morningglory; [8]) was 10, the “Morningglory plant response rating” value (morningglory; [3]) was 0 and the “Morningglory plant response rating” value (morningglory; [4]) was 0. For the same compound, the “Plant response rating, Morningglory” value (morningglory; [5]) was 0, the “Plant response rating, Morningglory” value (morningglory; [6]) was 6 and the “Morningglory plant response rating” value (morningglory; [7]) was 10. The “Plant response rating, Cocklebur” value (cocklebur; [1]) was 0, the “Cocklebur plant response rating” value (cocklebur; [2]) was 0 and the “Cocklebur plant response rating” value (cocklebur; [8]) was 0. For the same compound, the “Cocklebur plant response rating” value (cocklebur; [3]) was 0, the “Cocklebur plant response rating” value (cocklebur; [4]) was 0 and the “Plant response rating, Cocklebur” value (cocklebur; [5]) was 0. For the same compound, the “Plant response rating, Cocklebur” value (cocklebur; [6]) was 0, the “Cocklebur plant response rating” value (cocklebur; [7]) was 2 and the “Plant response rating, Sugarbeets” value (sugar beet; [1]) was 0. For the same compound, the “Sugarbeets plant response rating” value (sugar beet; [2]) was 0, the “Sugarbeets plant response rating” value (sugar beet; [3]) was 0 and the “Sugarbeets plant response rating” value (sugar beet; [4]) was 0. The “Plant response rating, Sugarbeets” value (sugar beet; [5]) was 0, the “Plant response rating, Sugarbeets” value (sugar beet; [6]) was 5 and the “Sugarbeets plant response rating” value (sugar beet; [7]) was 4. The “Plant response rating, Ducksalad (0 to 10 scale, 0 is no effect, 10 is complete control)” value (duck salad; [9]) was 0, the “Ducksalad plant response rating (0 to 10 scale, 0 is no effect, 10 is complete control)” value (duck salad; [10]) was 0 and the “Ducksalad plant response rating” value (duck salad; [11]) was 0. For the same compound, the “Ducksalad plant response rating” value (duck salad; [12]) was 0, the “Plant response rating, Velvetleaf” value (velvetleaf; [1]) was 0 and the “Velvetleaf plant response rating” value (velvetleaf; [2]) was 3. The “Velvetleaf plant response rating” value (velvetleaf; [3]) was 0, the “Velvetleaf plant response rating” value (velvetleaf; [4]) was 0 and the “Plant response rating, Velvetleaf” value (velvetleaf; [5]) was 6. The “Plant response rating, Velvetleaf” value (velvetleaf; [6]) was 7, the “Velvetleaf plant response rating” value (velvetleaf; [7]) was 6 and the “Plant response rating, Barnyardgrass (0 to 10 scale, 0 is no effect, 10 is complete control)” value (bamyardgrass; [9]) was 0. The “Barnyardgrass plant response rating (0 to 10 scale, 0 is no effect, 10 is complete control)” value (bamyardgrass; [10]) was 2, the “Barnyardgrass plant response rating” value (bamyardgrass; [11]) was 2 and the “Barnyardgrass plant response rating” value (bamyardgrass; [12]) was 7. The “Plant response rating, Nutsedge” value (purple nutsedge; [1]) was 0, the “Nutsedge plant response rating” value (purple nutsedge; [2]) was 0 and the “Nutsedge plant response rating” value (purple nutsedge; [3]) was 0. The “Nutsedge plant response rating” value (purple nutsedge; [4]) was 0, the “Plant response rating, Nutsedge” value (purple nutsedge; [5]) was 0 and the “Plant response rating, Nutsedge” value (purple nutsedge; [6]) was 0. The “Nutsedge plant response rating” value (purple nutsedge; [7]) was 0, the “Plant response rating, Corn” value (corn; [1]) was 0 and the “Corn plant response rating” value (corn; [2]) was 0. For the same compound, the “Corn plant response rating” value (corn; [8]) was 4, the “Corn plant response rating” value (corn; [3]) was 0 and the “Corn plant response rating” value (corn; [4]) was 0. For the same compound, the “Plant response rating, Corn” value (corn; [5]) was 7, the “Plant response rating, Corn” value (corn; [6]) was 9 and the “Corn plant response rating” value (corn; [7]) was 6. For the same compound, the “Plant response rating, Rice (0 to 10 scale, 0 is no effect, 10 is complete control)” value (rice; [9]) was 0, the “Rice plant response rating (0 to 10 scale, 0 is no effect, 10 is complete control)” value (rice; [10]) was 0 and the “Rice plant response rating” value (rice; [11]) was 0. The “Rice plant response rating” value (rice; [12]) was 0, the “Plant response rating, Blackgrass” value (blackgrass; [1]) was 1 and the “Blackgrass plant response rating” value (blackgrass; [2]) was 6. For the same compound, the “Blackgrass plant response rating” value (blackgrass; [8]) was 7, the “Blackgrass plant response rating” value (blackgrass; [3]) was 3 and the “Blackgrass plant response rating” value (blackgrass; [4]) was 6. For the same compound, the “Plant response rating, Blackgrass” value (blackgrass; [5]) was 7, the “Plant response rating, Blackgrass” value (blackgrass; [6]) was 9 and the “Blackgrass plant response rating” value (blackgrass; [7]) was 7. The “Plant response rating, Rape” value (rape; [1]) was 0, the “Rape plant response rating” value (rape; [2]) was 0 and the “Rape plant response rating” value (rape; [3]) was 0. For the same compound, the “Rape plant response rating” value (rape; [4]) was 0, the “Plant response rating, Rape” value (rape; [5]) was 2 and the “Plant response rating, Rape” value (rape; [6]) was 10. The “Rape plant response rating” value (rape; [7]) was 1.
